As a reminder, the IC50 is the midpoint of a concentration-inhibition curve. What is called half-life is the time needed for the level to fall by half in the phase considered.

This passage reports IC50 and half-life results from ChEMBL document CHEMBL1153694, “Non-hinge-binding pyrazolo[1,5-a]pyrimidines as potent B-Raf kinase inhibitors” (Bioorg Med Chem Lett, 2009).

Series [1] in a line: Cytotoxicity against human HT-29 cells expressing B-Raf mutant.
The subject of series [2] is WM-266-4 (Homo sapiens). Nature of the series: Cytotoxicity against human WM266.4 cells expressing B-Raf mutant.
In series [3] the target is Serine/threonine-protein kinase B-raf (Homo sapiens, UniProt P15056). In words: Inhibition of human recombinant B-Raf expressed in Sf9 cells.
Another series in a line: in vitro. Conditions: rat, liver microsomes.
Series [4] concerns WM-266-4 (Homo sapiens). Nature of the series: Cytotoxicity against human WM-266-4 cells expressing B-Raf mutant.
Series [5] deals with Cyclin-dependent kinase 2 (Homo sapiens, UniProt P24941). In words: Inhibition of CDK2.
Series [6] deals with Ribosomal protein S6 kinase beta-1 (Homo sapiens, UniProt P23443). Nature of the series: Inhibition of p70S6K.
Series [7] has as its target Cyclin-dependent kinase 4 (Homo sapiens, UniProt P11802). Nature of the series: Inhibition of CDK4.
The target of series [8] is Proto-oncogene tyrosine-protein kinase Src (Homo sapiens, UniProt P12931). Nature of the series: Inhibition of SRC.
Series [9] can be described thus: Inhibition of PKA.
For series [10], the target named is Mitogen-activated protein kinase 14 (Homo sapiens, UniProt Q16539). Nature of the series: Inhibition of p38alpha.
Series [11] has as its target MAP kinase-activated protein kinase 2 (Homo sapiens, UniProt P49137). In words: Inhibition of MK2.
The target in series [12] is T1, Inhibitor of nuclear factor kappa-B kinase subunit beta (Homo sapiens, UniProt O14920).
T1 sequence (O14920 whole entry): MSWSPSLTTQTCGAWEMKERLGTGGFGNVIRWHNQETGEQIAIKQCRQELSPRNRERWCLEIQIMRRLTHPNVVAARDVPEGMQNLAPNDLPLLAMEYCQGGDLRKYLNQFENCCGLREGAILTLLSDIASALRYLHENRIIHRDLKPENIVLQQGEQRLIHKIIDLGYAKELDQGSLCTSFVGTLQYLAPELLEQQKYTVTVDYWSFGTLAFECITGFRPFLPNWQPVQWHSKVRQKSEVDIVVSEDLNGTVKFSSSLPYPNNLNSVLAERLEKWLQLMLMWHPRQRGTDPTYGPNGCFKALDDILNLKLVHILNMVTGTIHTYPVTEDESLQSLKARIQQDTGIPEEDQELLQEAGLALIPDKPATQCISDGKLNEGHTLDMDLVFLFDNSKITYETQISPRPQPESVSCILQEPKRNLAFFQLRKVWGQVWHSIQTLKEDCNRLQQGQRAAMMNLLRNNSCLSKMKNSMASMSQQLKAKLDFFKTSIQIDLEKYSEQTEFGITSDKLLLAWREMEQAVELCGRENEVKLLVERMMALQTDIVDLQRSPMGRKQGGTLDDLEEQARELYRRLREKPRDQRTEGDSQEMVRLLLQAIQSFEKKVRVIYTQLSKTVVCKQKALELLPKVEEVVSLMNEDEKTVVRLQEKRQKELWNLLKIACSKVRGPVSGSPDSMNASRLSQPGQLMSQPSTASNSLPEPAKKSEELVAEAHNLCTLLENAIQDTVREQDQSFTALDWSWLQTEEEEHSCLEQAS
In words: Inhibition of IKK-beta.

Series [13] in a line: Inhibition of CAMK2.
Series [14] addresses Phosphatidylinositol 4,5-bisphosphate 3-kinase catalytic subunit alpha isoform (Homo sapiens, UniProt P42336). In words: Inhibition of PI3Kalpha.
The target of series [15] is Mitogen-activated protein kinase 8 (Homo sapiens, UniProt P45983). Nature of the series: Inhibition of JNK1.
The target in series [16] is T2, Dual specificity mitogen-activated protein kinase kinase 6 (Homo sapiens, UniProt P52564).
T2 sequence (P52564 whole entry): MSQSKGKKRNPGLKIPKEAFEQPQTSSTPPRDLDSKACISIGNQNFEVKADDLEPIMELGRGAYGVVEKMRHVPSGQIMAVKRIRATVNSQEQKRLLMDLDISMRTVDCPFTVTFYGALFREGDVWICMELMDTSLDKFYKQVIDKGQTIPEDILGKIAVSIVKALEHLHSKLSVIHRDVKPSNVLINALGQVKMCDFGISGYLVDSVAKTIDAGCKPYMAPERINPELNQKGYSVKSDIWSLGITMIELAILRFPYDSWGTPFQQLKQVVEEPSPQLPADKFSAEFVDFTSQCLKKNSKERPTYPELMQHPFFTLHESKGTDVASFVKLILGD
Nature of the series: Inhibition of MKK6.

In series [17] the target is Protein kinase C alpha type (Homo sapiens, UniProt P17252). Nature of the series: Inhibition of PKCalpha.
The target of series [18] is Serine/threonine-protein kinase PLK1 (Homo sapiens, UniProt P53350). Nature of the series: Inhibition of PLK1.
Sequence of Serine/threonine-protein kinase PLK1 (P53350 whole entry): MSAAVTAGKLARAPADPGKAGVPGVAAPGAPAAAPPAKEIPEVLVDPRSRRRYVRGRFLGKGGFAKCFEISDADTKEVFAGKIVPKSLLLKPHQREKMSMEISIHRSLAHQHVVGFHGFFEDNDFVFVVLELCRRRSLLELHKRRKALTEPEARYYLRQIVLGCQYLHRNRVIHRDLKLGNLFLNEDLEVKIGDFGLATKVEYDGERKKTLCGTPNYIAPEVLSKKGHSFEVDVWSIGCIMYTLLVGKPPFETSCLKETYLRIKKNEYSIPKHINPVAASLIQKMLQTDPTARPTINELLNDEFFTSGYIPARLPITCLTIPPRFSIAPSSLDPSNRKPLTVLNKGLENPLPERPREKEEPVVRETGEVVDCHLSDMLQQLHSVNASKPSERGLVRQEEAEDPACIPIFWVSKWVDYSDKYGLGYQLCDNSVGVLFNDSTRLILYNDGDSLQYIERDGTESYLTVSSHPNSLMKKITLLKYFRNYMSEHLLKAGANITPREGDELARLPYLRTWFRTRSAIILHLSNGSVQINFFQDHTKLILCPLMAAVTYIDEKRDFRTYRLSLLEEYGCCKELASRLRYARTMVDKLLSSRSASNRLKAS

Sequence of Serine/threonine-protein kinase B-raf (P15056 whole entry): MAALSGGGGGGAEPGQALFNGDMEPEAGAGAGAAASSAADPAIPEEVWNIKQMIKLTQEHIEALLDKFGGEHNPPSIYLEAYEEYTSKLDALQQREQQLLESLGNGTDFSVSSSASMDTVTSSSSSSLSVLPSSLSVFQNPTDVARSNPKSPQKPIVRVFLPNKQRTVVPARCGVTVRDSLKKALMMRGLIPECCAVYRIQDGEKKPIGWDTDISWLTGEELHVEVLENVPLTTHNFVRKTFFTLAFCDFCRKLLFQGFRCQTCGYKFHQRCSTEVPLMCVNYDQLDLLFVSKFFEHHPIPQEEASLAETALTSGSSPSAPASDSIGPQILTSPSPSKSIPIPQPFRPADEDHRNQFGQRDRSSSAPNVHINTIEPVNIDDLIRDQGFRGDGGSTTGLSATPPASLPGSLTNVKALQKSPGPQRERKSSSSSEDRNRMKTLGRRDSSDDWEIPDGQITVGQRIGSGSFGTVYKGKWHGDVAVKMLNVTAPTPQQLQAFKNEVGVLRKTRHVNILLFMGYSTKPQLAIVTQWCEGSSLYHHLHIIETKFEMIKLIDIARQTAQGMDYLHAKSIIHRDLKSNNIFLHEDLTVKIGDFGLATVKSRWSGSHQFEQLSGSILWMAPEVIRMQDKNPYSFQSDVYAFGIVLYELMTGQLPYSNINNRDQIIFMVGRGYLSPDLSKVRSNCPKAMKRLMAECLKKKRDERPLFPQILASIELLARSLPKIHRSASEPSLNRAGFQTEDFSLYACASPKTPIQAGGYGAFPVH
Sequence of Cyclin-dependent kinase 4 (P11802 whole entry): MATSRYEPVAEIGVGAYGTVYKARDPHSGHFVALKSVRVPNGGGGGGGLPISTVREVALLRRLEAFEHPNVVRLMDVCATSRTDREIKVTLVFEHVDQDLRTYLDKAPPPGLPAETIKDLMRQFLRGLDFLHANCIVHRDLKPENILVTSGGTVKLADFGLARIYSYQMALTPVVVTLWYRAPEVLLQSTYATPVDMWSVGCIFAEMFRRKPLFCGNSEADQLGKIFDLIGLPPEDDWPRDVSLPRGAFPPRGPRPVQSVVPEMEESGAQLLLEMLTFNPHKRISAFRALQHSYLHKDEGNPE
Sequence of Mitogen-activated protein kinase 8 (P45983 whole entry): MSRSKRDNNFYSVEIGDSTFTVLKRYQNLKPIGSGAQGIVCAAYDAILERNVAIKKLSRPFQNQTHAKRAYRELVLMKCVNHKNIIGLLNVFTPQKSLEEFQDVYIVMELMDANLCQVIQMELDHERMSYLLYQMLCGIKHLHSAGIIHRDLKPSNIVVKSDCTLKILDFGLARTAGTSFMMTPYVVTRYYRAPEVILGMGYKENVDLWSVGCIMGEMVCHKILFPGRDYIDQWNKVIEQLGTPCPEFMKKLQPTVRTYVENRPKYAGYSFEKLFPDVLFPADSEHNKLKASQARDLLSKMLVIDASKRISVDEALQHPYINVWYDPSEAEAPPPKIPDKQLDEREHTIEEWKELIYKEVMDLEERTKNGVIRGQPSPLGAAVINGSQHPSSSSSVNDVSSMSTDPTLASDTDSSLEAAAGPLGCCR
Sequence of Proto-oncogene tyrosine-protein kinase Src (P12931 2-536 limits assumed): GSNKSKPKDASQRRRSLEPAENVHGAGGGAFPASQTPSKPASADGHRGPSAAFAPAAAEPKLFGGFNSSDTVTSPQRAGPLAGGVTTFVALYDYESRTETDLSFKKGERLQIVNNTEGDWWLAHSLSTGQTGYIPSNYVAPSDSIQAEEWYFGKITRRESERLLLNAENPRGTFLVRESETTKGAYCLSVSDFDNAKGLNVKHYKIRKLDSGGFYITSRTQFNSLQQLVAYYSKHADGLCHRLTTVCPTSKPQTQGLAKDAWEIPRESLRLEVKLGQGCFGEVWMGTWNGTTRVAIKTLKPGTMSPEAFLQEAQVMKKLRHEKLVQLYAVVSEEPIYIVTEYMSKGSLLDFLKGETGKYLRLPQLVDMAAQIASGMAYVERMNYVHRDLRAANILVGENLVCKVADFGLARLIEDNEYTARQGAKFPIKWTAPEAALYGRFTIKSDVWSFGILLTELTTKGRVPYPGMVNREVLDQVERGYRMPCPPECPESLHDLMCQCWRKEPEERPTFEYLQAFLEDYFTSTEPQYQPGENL
Sequence of Ribosomal protein S6 kinase beta-1 (P23443 whole entry): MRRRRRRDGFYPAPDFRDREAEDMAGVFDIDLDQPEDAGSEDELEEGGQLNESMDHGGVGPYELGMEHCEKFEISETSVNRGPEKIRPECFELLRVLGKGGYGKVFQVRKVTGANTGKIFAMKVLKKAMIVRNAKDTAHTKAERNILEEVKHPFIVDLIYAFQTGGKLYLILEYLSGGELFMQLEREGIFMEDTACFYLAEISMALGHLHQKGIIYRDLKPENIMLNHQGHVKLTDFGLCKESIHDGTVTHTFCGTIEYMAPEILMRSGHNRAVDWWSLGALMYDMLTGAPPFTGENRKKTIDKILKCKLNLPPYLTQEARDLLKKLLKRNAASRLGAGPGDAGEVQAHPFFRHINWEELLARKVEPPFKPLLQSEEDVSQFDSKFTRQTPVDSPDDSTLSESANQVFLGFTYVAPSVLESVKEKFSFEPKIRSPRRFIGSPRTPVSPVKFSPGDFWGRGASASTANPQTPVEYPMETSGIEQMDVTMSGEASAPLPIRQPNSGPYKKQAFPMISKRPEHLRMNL
Sequence of MAP kinase-activated protein kinase 2 (P49137 whole entry): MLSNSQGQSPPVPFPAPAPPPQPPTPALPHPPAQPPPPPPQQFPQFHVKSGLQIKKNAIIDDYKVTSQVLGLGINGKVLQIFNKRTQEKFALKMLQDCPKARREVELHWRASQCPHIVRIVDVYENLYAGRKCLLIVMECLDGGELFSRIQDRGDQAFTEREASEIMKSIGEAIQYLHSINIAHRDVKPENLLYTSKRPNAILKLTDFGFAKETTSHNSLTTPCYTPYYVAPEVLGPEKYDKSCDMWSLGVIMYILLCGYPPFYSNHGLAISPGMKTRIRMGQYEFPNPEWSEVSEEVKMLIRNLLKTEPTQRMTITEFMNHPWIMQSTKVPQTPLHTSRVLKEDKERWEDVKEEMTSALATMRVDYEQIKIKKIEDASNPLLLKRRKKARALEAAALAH
Sequence of Mitogen-activated protein kinase 14 (Q16539 whole entry): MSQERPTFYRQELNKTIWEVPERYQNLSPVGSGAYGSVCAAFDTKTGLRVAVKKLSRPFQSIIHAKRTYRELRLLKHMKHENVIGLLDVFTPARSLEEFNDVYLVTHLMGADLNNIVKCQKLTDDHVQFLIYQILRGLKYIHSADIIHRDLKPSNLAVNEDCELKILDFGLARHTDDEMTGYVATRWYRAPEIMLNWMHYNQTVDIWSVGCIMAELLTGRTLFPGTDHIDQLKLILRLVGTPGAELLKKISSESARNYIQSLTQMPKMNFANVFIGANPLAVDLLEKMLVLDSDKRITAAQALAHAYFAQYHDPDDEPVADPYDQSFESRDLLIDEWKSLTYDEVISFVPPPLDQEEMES

Consider `CN(C)Cc1cccc(-c2cnn3c(-c4cccc(NC(=O)c5cccc(C(F)(F)F)c5)c4)ccnc23)c1`, for which the IC50 in [1] turned out to be 0.8 µM.

As for `COCCOCC(=O)Nc1ccc(-c2cnn3c(-c4cccc(NC(=O)c5cccc(C(F)(F)F)c5)c4)ccnc23)cc1`, the IC50 was more than 10 µM in the series on WM-266-4 (Homo sapiens) [2], 3.9 µM in [1] and 0.139 µM in series [3].

As to `CCN1CCN(Cc2cc(-c3cnn4c(-c5cccc(NC(=O)c6cccc(C(F)(F)F)c6)c5)ccnc34)co2)CC1`, the IC50 in the series with WM-266-4 (Homo sapiens) [2] amounted to 2.9 µM; in [1] it was 1.7 µM; in series [3] it was 0.219 µM.

In turn, `CN(C)CCc1ccccc1-c1cnn2c(-c3cccc(NC(=O)c4cccc(C(F)(F)F)c4)c3)ccnc12` displayed an IC50 in series [1] of 0.84 µM.

Take `O=C(Nc1cccc(-c2ccnc3c(-c4ccc(CN5CCCC5)cc4)cnn23)c1)c1cccc(C(F)(F)F)c1`: the IC50 in series [1] came to 0.65 µM; in series [3], 0.02 µM. The half-life in the series “in vitro” is 27 min.

Turning to `CN(C)CC(=O)Nc1ccc(-c2cnn3c(-c4cccc(NC(=O)c5cccc(C(F)(F)F)c5)c4)ccnc23)cc1`, the IC50 in series [1] stood at 0.77 µM; in series [3] it was 0.034 µM.

Regarding `NC(=O)c1cccc(-c2cnn3c(-c4cccc(NC(=O)c5cccc(C(F)(F)F)c5)c4)ccnc23)c1`, the IC50 with WM-266-4 (Homo sapiens) [4] came to 3.7 µM; in series [1], 3.2 µM.

Turning to `CN1CCN(c2ccc(-c3cnn4c(-c5cccc(NC(=O)c6cccc(C(F)(F)F)c6)c5)ccnc34)cn2)CC1`, the IC50 in [1] is 0.31 µM; in series [3] it was 0.044 µM.

For `O=C(Nc1cccc(-c2ccnc3c(-c4cccnc4)cnn23)c1)c1cccc(C(F)(F)F)c1`, the IC50 in series [3] was determined as 0.113 µM.

On to `CN1CCN(CCCC#Cc2cnn3c(-c4cccc(NC(=O)c5cccc(C(F)(F)F)c5)c4)ccnc23)CC1`, for which the IC50 with WM-266-4 (Homo sapiens) [2] is 1.4 µM; in [1], 2.6 µM. Besides, the half-life in the series “in vitro” came out at 3 min.

In turn, `CN(C)CCc1cccc(-c2cnn3c(-c4cccc(NC(=O)c5cccc(C(F)(F)F)c5)c4)ccnc23)c1` yielded an IC50 in [1] of 0.65 µM.

In turn, `CN(C)CCNc1ccc(-c2cnn3c(-c4cccc(NC(=O)c5cccc(C(F)(F)F)c5)c4)ccnc23)cn1` came in with an IC50 in series [1] of 0.46 µM.

Regarding `O=C(Nc1cccc(-c2ccnc3c(-c4coc(CN5CCCC5)c4)cnn23)c1)c1cccc(C(F)(F)F)c1`, the results for the IC50 (in the series on WM-266-4 (Homo sapiens) [2]; in series [1]) were 3.2 µM and 2.2 µM, respectively.

`CN(C)CC(=O)Nc1cccc(-c2cnn3c(-c4cccc(NC(=O)c5cccc(C(F)(F)F)c5)c4)ccnc23)c1` came in with an IC50 in series [1] of 0.8 µM.

As for `CN1CCN(c2ccc(-c3cnn4c(-c5cc(NC(=O)c6cccc(C(F)(F)F)c6)ccc5F)ccnc34)cn2)CC1`, the IC50 in series [1] came out at 0.63 µM; in series [3], 0.03 µM.

In the case of `CN(C)Cc1ccc(-c2cnn3c(-c4cccc(NC(=O)c5cccc(C(F)(F)F)c5)c4)ccnc23)cc1`, the 50% inhibitory concentration (IC50) in series [5] was more than 2 µM; in series [6] it was more than 2 µM; in series [7], more than 2 µM; in [8], more than 2 µM; in [9], more than 2 µM; in series [10], 0.216 µM. For the same compound, the IC50 in series [11] is more than 2 µM; in series [12], more than 2 µM; in series [1], 0.78 µM; in [13], 0.822 µM; in series [14] it was more than 2 µM; in series [15] it was more than 2 µM. The IC50 in series [16], in series [17] and in series [18] was more than 2 µM in each case. This compound yielded a half-life in the series “in vitro” of 6 min.

For the compound `CN(C)c1ccc(-c2cnn3c(-c4cccc(NC(=O)c5cccc(C(F)(F)F)c5)c4)ccnc23)cc1`, the half-maximal inhibitory concentration (IC50) in the series with WM-266-4 (Homo sapiens) [2] was more than 10 µM; in series [3] it was 0.308 µM.

Regarding `O=C(Nc1cccc(-c2ccnc3c(C#CCCCN4CCOCC4)cnn23)c1)c1cccc(C(F)(F)F)c1`, the IC50 in the series with WM-266-4 (Homo sapiens) [2] stood at 5.5 µM; in [1] it was 3.5 µM. Besides, the half-life in the series “in vitro” was more than 30 min.

`COc1ccc(NC(=O)c2cccc(C(F)(F)F)c2)cc1-c1ccnc2c(-c3cn[nH]c3)cnn12`: the concentration for half-maximal inhibition (IC50) in [1] was found to be 2.9 µM; in [3], 0.098 µM.

As to `Nc1ccc(-c2cnn3c(-c4cccc(NC(=O)c5cccc(C(F)(F)F)c5)c4)ccnc23)cn1`, the values for the IC50 (in the series with WM-266-4 (Homo sapiens) [2]; in series [1]) were 3.4 µM and 2.4 µM, respectively.

On to `CN(C)Cc1ccccc1-c1cnn2c(-c3cccc(NC(=O)c4cccc(C(F)(F)F)c4)c3)ccnc12`, for which the IC50 (in the series on WM-266-4 (Homo sapiens) [2]; in series [1]) was 2.9 µM each time.

Consider `O=C(Nc1cccc(-c2ccnc3c(-c4cnn(CCN5CCCC5)c4)cnn23)c1)c1cccc(C(F)(F)F)c1`, for which the IC50 in the series with WM-266-4 (Homo sapiens) [2] came out at 3.3 µM; in series [1], 2.8 µM. In “in vitro”, this compound came in with a half-life of 26 min.

For the compound `CN(C)CCc1ccc(-c2cnn3c(-c4cccc(NC(=O)c5cccc(C(F)(F)F)c5)c4)ccnc23)cc1`, the IC50 in the series with WM-266-4 (Homo sapiens) [2] turned out to be 0.74 µM; in series [1], 0.73 µM.

`O=C(Nc1cccc(-c2ccnc3c(-c4cnc(N5CCOCC5)nc4)cnn23)c1)c1cccc(C(F)(F)F)c1`: in [3], the IC50 is 0.941 µM.

The compound `O=C(Nc1cccc(-c2ccnc3c(-c4cn[nH]c4)cnn23)c1)c1cccc(C(F)(F)F)c1` gave an IC50 in series [1] of 2.8 µM.

For `O=C(Nc1ccc(F)c(-c2ccnc3c(-c4cn[nH]c4)cnn23)c1)c1cccc(C(F)(F)F)c1`, the IC50 in series [1] was found to be 2.8 µM; in series [3], 0.018 µM.

Regarding `CN1CCN(Cc2ccc(-c3cnn4c(-c5cccc(NC(=O)c6cccc(C(F)(F)F)c6)c5)ccnc34)cc2)CC1`, the IC50 is 0.7 µM in series [1] and 0.038 µM in series [3]. The compound further returned a half-life in the series “in vitro” of 3 min.

As for `O=C(Nc1ccc(Cl)c(-c2ccnc3c(-c4cn[nH]c4)cnn23)c1)c1cccc(C(F)(F)F)c1`, the IC50 in series [1] was 2.9 µM; in [3] it was 0.042 µM.
